Measurements taken from patent US20260131324A1, “A CONTAINER FOR IN VITRO DRUG TESTING” (National University of Singapore, priority 2022, published 2026).

What was measured:
[1] = Proof-of-concept model: diffusion through agarose hydrogel container (version 1.0) in modified flow-through cell; assay type: physicochemical; conditions: plateau at about 7 h, PBS with Tween 80
Excerpt: FIG. 4A illustrates a hydrogel container 402 (left) and a modified flow-through cell 404 (right) used as a proof-of-concept model for the diffusion experiment shown in the first flow chart 300A of FIG. 3. The proof-of-concept model was designed to affirm the discriminative power of an agarose hydrogel under continuous media flow. Serving as a physicochemical barrier between drug and media, it is supposed to generate data ascertaining differences in diffusion behaviour and gel interaction of closely related drug formulations. For this, Actrapid® (regular human insulin, hexamer) and Apidra® (insulin glulisine) were chosen as model peptide formulations for the initial setup. m-Cresol, present in both formulations, was quantified as well, serving as an internal standard.
A cylindrical gel that forms both the physicochemical barrier and pocket was prepared with the help of custom-made plastic receptacles. The gel consists of 2% (w/w) agarose dissolved in PBS. […] After cooling at room temperature, the gel is formed and ready to use. […]
FIG. 4B illustrates an assay setup for the proof-of-concept model of FIG. 4A for in vitro drug testing. […] Quantification of insulin and m-cresol in the medium was then carried out by HPLC. Subsequently, the cumulative diffusion of the model drugs was calculated by comparing the diffused amount with the initially added drug concentration. […]

[2] = Diffusion through hydrogel container (version 2.0) in USP apparatus IV, PBS medium; assay type: physicochemical; conditions: at 8.25 h; caffeine stock solution 4 mg/mL, 1 mL; 100 mL PBS; 34 C
Protocol: The compendial flow-through cell 504 of the USP apparatus IV 502 is an enclosed system with a heating mantle that allows a controlled medium flow from the bottom to the top of the cell 504. The ring 114 was mounted onto a cylindrical mould and the gel composition was filled into the mould. A punch was used to create interior pockets of similar size. The drug formulation 106 was then injected into the interior pocket of the receptacle 102, and the ring 114 was sealed with a rubber plug 116. The USP apparatus IV 502, as well as the various flow-through cells 504, have been described by various pharmacopoeias and related literature. For this diffusion experiment, a SOTAX CP7-35 Piston Pump 506, alone with a fraction collector 508 and the SOTAX CE7 dissolution system, was used. Media 510 was filled into the reservoir 512 with magnetic stirrers running at 150 rpm. The dissolution apparatus was operated in a closed-loop configuration with a constant flow of 8±0.4 mL/min for all experiments. […] Caffeine was quantified with a ultraviolet-visible (UV/Vis) spectrometer. Subsequently, the cumulative diffusion of caffeine was calculated by comparing the diffused amount with the initially added drug concentration. […] In the next step, new containers 100 were evaluated with Actrapid® and […]®. […]

| Compound | cumulative diffusion of m-cresol, maximum ([1]; m-cresol inside Apidra) | cumulative diffusion of m-cresol, plateau ([1]; m-cresol inside the Actrapid formulation) | cumulative diffusion of caffeine [2] |
| --- | --- | --- | --- |
| Cc1cccc(O)c1 [m-cresol, m-Cresol] | 88±0.2% | 84±1.0% | – |
| Cn1c(=O)c2c(ncn2C)n(C)c1=O [caffeine] | – | – | around 101±3% |
